Source: PMC5920042, “KH176 Safeguards Mitochondrial Diseased Cells from Redox Stress-Induced Cell Death by Interacting with the Thioredoxin System/Peroxiredoxin Enzyme Machinery” (Scientific Reports, 2018)
Where two headings read alike, the source gives them in different places.

What was measured:
[1] = tested on: primary human skin fibroblasts; test: Cellular superoxide detection by HEt oxidation; assay type: cell-based; conditions: 24 h compound
Description: The cells were seeded at a density of 3 × 10^3 cells/well into 96-wells black plates. After 24 h, the cells were incubated with different amounts of KH176(m) for 24 h. For the cellular superoxide measurements cells were then washed with M199 without phenol red and incubated with HEt (#D11347, ThermoFisher) in this same medium for 10 minutes. […] Total cellular fluorescence per well was normalized on the incubation with the probe but without compound (vehicle set as 100%). Experiments were performed at least three times with 3 wells per experiment.

[2] = 28-day repeat oral dose toxicity study, toxicokinetics; assay type: in vivo, Sprague Dawley rats; conditions: Sprague Dawley, rat, plasma, po; for AUC(0-t): read-out: AUC0–24 h; for Cmax: read-out: Cmax
Description: Pharmacokinetics and toxicokinetics measurements were performed by the commercial Contract Research Organizations Sai Life Sciences and WuXi AppTec, respectively, according to their standard protocols and in accordance with relevant guidelines and regulations. C57 BL/6 mice, Sprague Dawley rats, and Beagle dogs were studied.

P4 cell line [3] = test: Redox Stress Survival assay (BSO-induced cell death, Calcein AM viability); assay type: cell-based, human; conditions: for EC50: 24 h, P4 cells, 200 µM BSO
Description: Cells were seeded at a density of 4 × 10^3 cells/well into 96-wells black plates and incubated for 24 h. To induce redox stress, semi-logarithmic dilutions of buthionine sulphoximine (BSO, #B2515, Sigma Aldrich) up to 100 µM were added to the cells in culture medium and incubated for 24 h. Cell viability was assessed by quantification of cellular conversion of Calcein AM into fluorescent Calcein. Briefly, after having discarded the BSO containing medium, cells were washed once with M199 without phenol red and loaded with 2 µM Calcein AM (#65-0853-39, Affimetrix eBioscience) in M199 without phenol red for 25 min. At the end of the incubation period, the excess of the dye was washed with M199 without phenol red and Calcein fluorescence was measured with a scanning microplate reader (BMG FLUOstar Omega; Ex. 480 nm, Em. 520 nm). For compound screening and target identification measurements cells were treated with 200 µM BSO alone or in co-incubation with semi-logarithmic dilutions of the test compound. Additionally, where indicated, increasing doses of Auranofin (AFN, #BML-EI206-0100, Enzo) or Aurothioglucose (ATG, #A0606, Sigma Aldrich) were co-incubated with BSO and the test compound. In all cases, cell viability was assessed 24 h after the treatment.

P4 cell line [4] = test: Radical-Scavenging Capacity assay (CM-H2DCFDA, H2O2 or KO2); assay type: cell-based, human; conditions: P4 cells, 100 µM H2O2 or 1 mM KO2 (text: KOH), 3 µM compound
Description: Cells were seeded at a density of 4 × 10^3 cells/well into 96-wells black plates. After 24 h the cells were loaded with 5 µM CM-H2DCFDA in M199 without phenol red for 20 min. The dye excess was washed with M199 without phenol red and immediately after, cells were treated acutely with different concentrations of the test compounds in M199 without phenol red. To generate radicals, 100 µM H2O2 or 1 mM KO2 were injected to the compound-treated cells and CM-DCF fluorescence was measured every 2 min for 70 cycles on a scanning microplate reader (BMG FLUOstar Omega; Ex. 480 nm, Em. 520 nm). The area under the generated curves was calculated using the Origin 6.1 software (OriginLab).

human Prdx2 = molecular target: T1, human Prdx2 (Homo sapiens, UniProt P32119); test: Surface Plasmon Resonance binding; conditions: immobilized Prdx2, SPR, 0.31-5.0 µM
T1 construct: purchased Novus Biological NBC1-25855
T1 sequence (P32119 1-198): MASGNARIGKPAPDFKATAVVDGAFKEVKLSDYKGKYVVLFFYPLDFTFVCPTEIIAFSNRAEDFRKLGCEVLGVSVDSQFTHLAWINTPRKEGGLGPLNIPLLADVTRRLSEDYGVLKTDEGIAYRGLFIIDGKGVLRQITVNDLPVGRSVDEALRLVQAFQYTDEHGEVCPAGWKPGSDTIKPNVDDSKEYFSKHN
Description: Prior to protein immobilization all proteins were dialyzed against HBS-E (10 mM Hepes, 150 mM NaCl, 3 mM EDTA) buffer that was previously filtered through a 0.45 µM membrane using dialyze slide according to the manufacturer instruction. Human recombinant proteins peroxiredoxin 2 (Novus Biological NBC1-25855) and CCDC101 (Abcam Ab124547) were immobilized on CM5 (carboxymethylated dextran covalently attached to a gold surface) using the amine coupling method according to manufacturer’s recommendation (Biacore, GE Healthcare). Briefly the CM5 surface was activated with the mixture of EDC/NHS. Recombinant proteins at dilution 1 µg/ml in a corresponding buffer i.e. Peroxiredoxin 2 and CCDC101 in sodium acetate buffer 100 mM (pH 4.9). The control channel was activated with EDC/NHS. All channels were thereafter saturated with 0.1 M ethanolamine solution. KH176 andKH176m were solubilized in HBSS at stock solution 1 mM. They were thereafter further diluted in HBSS to final concentrations 0.31e-6M, 0.62e-6M, 1.25e-6M, 2.5e-6M and 5.0e-6M and injected over the flow cells at a flow rate equal to […] for 2 min, followed by a dissociation phase of 4 min. The sensor chip surface was regenerated with 1 mM HCl. The specific binding profiles were obtained after subtracting the response signal from the control empty channel and from blank-buffer injection. The specific binding was calculated using Biaeval 3 software (Biacore, GE Healthcare) with the postulate of 1:1 ligand/analyte interaction. Based on the Chi^2 value in regard to the Rmax (less than 10%) and the difference interval ±2.5 RU theoretic fitting compared to experimental results, best fitting algorithm between Langmuir or drifting base line was applied.

[5] = female, 25 mg/kg, KH176 25 mg/kg/dose BID oral, F, Day 1, plasma
[6] = female, 25 mg/kg, KH176 25 mg/kg/dose BID oral, F, Day 28, plasma
[7] = female, 75 mg/kg, KH176 75 mg/kg/dose BID oral, F, Day 1, plasma
[8] = female, 75 mg/kg, KH176 75 mg/kg/dose BID oral, F, Day 28, plasma
[9] = female, 250 mg/kg, KH176 250 mg/kg/dose BID oral, F, Day 1, plasma
[10] = female, 250 mg/kg, KH176 250 mg/kg/dose BID oral, F, Day 28, plasma
[11] = male, 25 mg/kg, KH176 25 mg/kg/dose BID oral, M, Day 1, plasma
[12] = male, 25 mg/kg, KH176 25 mg/kg/dose BID oral, M, Day 28, plasma
[13] = male, 75 mg/kg, KH176 75 mg/kg/dose BID oral, M, Day 1, plasma
[14] = male, 75 mg/kg, KH176 75 mg/kg/dose BID oral, M, Day 28, plasma
[15] = male, 250 mg/kg, KH176 250 mg/kg/dose BID oral, M, Day 1, plasma
[16] = male, 250 mg/kg, KH176 250 mg/kg/dose BID oral, M, Day 28, plasma

Cc1c(C)c2c(c(C)c1O)CC[C@@](C)(C(=O)N[C@@H]1CCCNC1)O2.Cl [KH176, (S)-6-hydroxy-2,5,7,8-tetramethyl-N-((R)-piperidin-3-yl)chroman-2-carboxamide hydrochloride]
Effect on basal cellular superoxide levels (HEt) [1]: no effect
half-life [2, 5]: 2.6 h
AUC(0-t) [2, 5]: 12500 ng·h/mL
Cmax [2, 5]: 1360 ng/mL
half-life [2, 6]: 3.2 h
AUC(0-t) [2, 6]: 19000 ng·h/mL
Cmax [2, 6]: 2270 ng/mL
half-life [2, 7]: 8.4 h
AUC(0-t) [2, 7]: 42400 ng·h/mL
Cmax [2, 7]: 3050 ng/mL
half-life [2, 8]: 6 h
AUC(0-t) [2, 8]: 76900 ng·h/mL
Cmax [2, 8]: 5340 ng/mL
AUC(0-t) [2, 9]: 104000 ng·h/mL
Cmax [2, 9]: 6970 ng/mL
AUC(0-t) [2, 10]: 243000 ng·h/mL
Cmax [2, 10]: 13300 ng/mL
half-life [2, 11]: 2.4 h
AUC(0-t) [2, 11]: 10500 ng·h/mL
Cmax [2, 11]: 979 ng/mL
half-life [2, 12]: 5.6 h
AUC(0-t) [2, 12]: 15600 ng·h/mL
Cmax [2, 12]: 1600 ng/mL
half-life [2, 13]: 4.5 h
AUC(0-t) [2, 13]: 33100 ng·h/mL
Cmax [2, 13]: 2860 ng/mL
AUC(0-t) [2, 14]: 46200 ng·h/mL
Cmax [2, 14]: 4210 ng/mL
AUC(0-t) [2, 15]: 94000 ng·h/mL
Cmax [2, 15]: 5890 ng/mL
half-life [2, 16]: 8.3 h
AUC(0-t) [2, 16]: 157000 ng·h/mL
Cmax [2, 16]: 11200 ng/mL
EC50 (P4 cell line [3]; Homo sapiens): 269 nM
EC50 (P4 cell line [3]): 270 nM
Viability of patient cells under BSO (P4 cell line [3]; increasing BSO 24 h, 3 µM compound): fully protected
Reduction of H2O2-induced radicals and O2.- (CM-H2DCFDA oxidation) (P4 cell line [4]): able to reduce the levels of both radicals
Binding to Prdx2 (human Prdx2): not
